The record followed here is EP4782453A1 (Beyang Therapeutics Co., Ltd., priority 2023, dated 2025).

SMILES strings stand for the structures.

The target in the first assay is T1, Menin-MLL (Homo sapiens, UniProt O00255).
T1 construct: His-Menin (M1-L615 end); purchased BIORTUS BP9210
T1 sequence (O00255 1-615 isoform O00255-1): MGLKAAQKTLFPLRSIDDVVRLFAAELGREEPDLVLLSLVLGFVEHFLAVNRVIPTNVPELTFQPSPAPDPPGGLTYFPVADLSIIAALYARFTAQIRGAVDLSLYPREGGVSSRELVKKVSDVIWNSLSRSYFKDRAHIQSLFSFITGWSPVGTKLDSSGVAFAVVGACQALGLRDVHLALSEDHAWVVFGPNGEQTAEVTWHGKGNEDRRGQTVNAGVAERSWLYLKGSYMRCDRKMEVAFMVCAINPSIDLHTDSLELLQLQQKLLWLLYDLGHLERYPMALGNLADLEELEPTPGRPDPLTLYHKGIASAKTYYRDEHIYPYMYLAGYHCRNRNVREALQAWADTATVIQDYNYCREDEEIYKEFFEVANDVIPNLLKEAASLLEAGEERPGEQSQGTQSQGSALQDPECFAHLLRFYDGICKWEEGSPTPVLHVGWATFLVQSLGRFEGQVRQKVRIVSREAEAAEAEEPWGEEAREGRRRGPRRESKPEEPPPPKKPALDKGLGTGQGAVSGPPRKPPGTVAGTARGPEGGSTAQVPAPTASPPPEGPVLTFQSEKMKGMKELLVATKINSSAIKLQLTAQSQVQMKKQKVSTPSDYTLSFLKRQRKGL
The assay can be described thus: Inhibitory activity against Menin-MLL binding (fluorescence polarization). Conditions: Menin-MLL IC50, fluorescence polarization; 150 nM His-Menin, 15 nM FITC-MLL; 25°C for 60 min. The essentials: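 His-Menin (M1-L615, 150 nM) preincubated with compound 15 min at 25 °C in HEPES pH 7.5, 50 mM NaCl, 1 mM DTT, 0.01% BSA, then 15 nM FITC-MLL4-43 peptide added for 60 min at 25 °C. Fluorescence polarization read; IC50 from 4-parameter logistic fit, duplicates.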
On the technique in general: In fluorescence polarisation assays a small probe gives low polarisation when free and higher when bound to something large.
On to `CCN(C(=O)c1cc(F)ccc1-c1cc(C2CCN(C[C@H]3CC[C@H](NS(=O)(=O)CC)CC3)C2)cc2cnc(C)n12)C(C)C` (mixture of isomers) [Example 35, N-ethyl-5-fluoro-2-[3-methyl-7-(1-{[(1r,4r)-4-ethanesulfonamidocyclohexyl]methyl}pyrrolidin-3-yl)imidazo[1,5-a]pyridin-5-yl]-N-(isopropyl)benzamide], for which the IC50 was 39.5 nM.

`Cc1nc(F)c2c(-c3ccc(F)cc3C(=O)N3CCOC[C@H]3C)cc(C3CN([C@@H](C)C4CCN(C(=O)[C@@H]5C[C@@H]5F)CC4)C3)cn12` [Example 303] returned a 50% inhibitory concentration (IC50) of 5 nM.

`CCN(C(=O)c1cc(F)ccc1-c1cc([C@H]2CCN(C[C@H]3CC[C@H](NS(=O)(=O)CC)CC3)C2)nc2c1cnn2C)C(C)C` [Example 11-2, N-ethyl-5-fluoro-2-{1-methyl-6-[(3S)-1-{[(1r,4r)-4-ethanesulfonamidocyclohexyl]methyl}pyrrolidin-3-yl]-1H-pyrazolo[3,4-b]pyridin-4-yl}-N-(isopropyl)benzamide] came in with an IC50 of 65.5 nM.

As to `CC[C@H](C)[C@H](NC)C(=O)N1CC(c2cc(-c3ccc(F)cc3C(=O)N(CC)C(C)C)c3c(F)nc(C)n3c2)C1` [Example 316], the IC50 stood at 99 nM.

Compound `CCN(C(=O)c1cc(F)ccc1-c1cc(C2CCN(C(=O)[C@@H]3CCCCN3)C2)cn2c(C)ncc12)C(C)C` (stereo partly shown) [Example 97] returned an IC50 of 210 nM.

In the case of `Cc1ncc2c(-c3ccc(F)cc3C(=O)N(CC(F)F)C(C)C)cc(N3CCN(C(=O)C4NC5CCC4CC5)CC3)cn12` [Example 94, N-(2,2-difluoroethyl)-5-fluoro-2-(3-methyl-6-{4-[(1R,3S,4S)-2-azabicyclo[2.2.2]octan-3-carbonyl]piperazin-1-yl}imidazo[1,5-a]pyridin-8-yl)-N-(isopropyl)benzamide], the IC50 turned out to be 44.5 nM.

`CCN(C(=O)c1cc(F)ccc1-c1cc(N2CCN(C(=O)C3NC4CCC3CC4)CC2)cn2c(C)nc(Cl)c12)C(C)C` [Example 93, 2-(1-chloro-3-methyl-6-{4-[(1R,3S,4S)-2-azabicyclo[2.2.2]octan-3-carbonyl]piperazin-1-yl}imidazo[1,5-a]pyridin-8-yl)-N-ethyl-5-fluoro-N-(isopropyl)benzamide] displayed an IC50 of 21 nM.

Still in this assay, the particulars now being: fluorescence polarization; 150 nM His-Menin, 15 nM FITC-MLL; 25°C for 60 min; read-out: Menin-MLL IC50.
In the case of `Cc1nc(F)c2c(-c3ccc(F)cc3C(=O)N3CCOC[C@H]3C)cc(C3CN(C(CO)C4CCOCC4)C3)cn12` (stereo partly drawn) [Example 309, 2-[3-(1-fluoro-8-{4-fluoro-2-[(3R)-3-methylmorpholin-4-carbonyl]phenyl}-3-methylimidazo[1,5-a]pyridin-6-yl)azacyclobutan-1-yl]-2-(oxacyclohexan-4-yl)ethan-1-ol], the IC50 worked out at 60 nM.

With `Cc1ncc2c(-c3ccc(F)cc3C(=O)N(CC(F)F)C(C)C)cc(N3CCN(C(=O)[C@@H]4CCCN4)CC3)cn12` [Example 119], the half-maximal inhibitory concentration (IC50) was 41 nM.

On to `Cc1nc(F)c2c(-c3ccc(F)cc3C(=O)N3CCOC[C@H]3C)cc(C3CN(CC4CCCOC4)C3)cn12` (stereo partly shown) [Example 235], for which the IC50 was found to be 49.5 nM.

Turning to `CC(=O)N1CCC([C@@H](C(C)C)N2CC(c3cc(-c4ccc(F)cc4C(=O)N4CCOC[C@H]4C)c4c(F)nc(C)n4c3)C2)CC1` [Example 357-2, 1-{4-[(1R)-1-[3-(1-fluoro-8-{4-fluoro-2-[(3R)-3-methylmorpholin-4-carbonyl]phenyl}-3-methylimidazo[1,5-a]pyridin-6-yl)azacyclobutan-1-yl]-2-methylpropyl]piperidin-1-yl}ethan-1-one], the IC50 came to 22 nM.

`Cc1nc(F)c2c(-c3ccc(F)cc3C(=O)N3CCOC[C@H]3C)cc(C3CN([C@H](CN4CCNCC4)C(C)C)C3)cn12` [Example 367-2, (3R)-4-[5-fluoro-2-(1-fluoro-3-methyl-6-{1-[(2S)-3-methyl-1-(piperazin-1-yl)butan-2-yl]azacyclobutan-3-yl}imidazo[1,5-a]pyridin-8-yl)benzoyl]-3-methylmorpholine]: the concentration for half-maximal inhibition (IC50) amounted to 4 nM.

Regarding `CC(C)N(CC(F)F)C(=O)c1cc(F)ccc1-c1cc([C@H]2CCN(CCN3CCC(NC(=O)OC(C)(C)C)CC3)C2)cc2c1cnn2C` [Example 166-2, N-(1-{2-[(3R)-3-(4-{2-[(2,2-difluoroethyl)(isopropyl)aminoformyl]-4-fluorophenyl}-1-methyl-1H-indazol-6-yl)pyrrolidin-1-yl]ethyl}piperidin-4-yl)tert-butyl carbamate], the IC50 worked out at 248 nM.

Regarding `CCC(=O)N1CCC([C@H](C)N2CC(c3cc(-c4ccc(F)cc4C(=O)N4CCOC[C@H]4C)c4cnc(C)n4c3)C2)CC1` [Example 319-1, 1-{4-[(1S)-1-[3-(8-{4-fluoro-2-[(3R)-3-methylmorpholin-4-carbonyl]phenyl}-3-methylimidazo[1,5-a]pyridin-6-yl)azacyclobutan-1-yl]ethyl]piperidin-1-yl}propan-1-one], the IC50 came out at 39 nM.

As to `CCS(=O)(=O)N[C@H]1CC[C@H](CN2CC(c3cc(-c4ccc(F)cc4C(=O)N4CCC[C@H]4C)c4cnn(C)c4c3)C2)CC1` [Example 167], the IC50 came to 57 nM.

Turning to `Cc1nc(F)c2c(-c3ccc(F)cc3C(=O)N3CCOC[C@H]3C)cc(C3CN(C[C@H]4CC[C@H](c5cnn(C)c5)CC4)C3)cn12` [Example 276-2, (3R)-4-{5-fluoro-2-[1-fluoro-3-methyl-6-(1-{[(1r,4r)-4-(1-methyl-1H-pyrazol-4-yl)cyclohexyl]methyl}azacyclobutan-3-yl)imidazo[1,5-a]pyridin-8yl]benzoyl}-3-methylmorpholine], the IC50 amounted to 7 nM.

As to `Cc1nc(F)c2c(-c3ccc(F)cc3C(=O)N3CCOC[C@H]3C)cc(C3CN([C@@H](CCCN4CCOCC4)C(C)C)C3)cn12` [Example 199-2, (3R)-4-[5-fluoro-2-(1-fluoro-3-methyl-6-{1-[(3S)-2-methyl-6-(morpholin-4-yl)hexan-3-yl]azacyclobutan-3-yl}imidazo[1,5-a]pyridin-8-yl)benzoyl]-3-methylmorpholine], the IC50 was 205 nM.

On to `CCN(C(=O)c1cc(F)ccc1-c1cc(C2CN(C(CCC(=O)O)C(C)C)C2)cn2c(C)ncc12)C(C)C` (stereo not shown) [Example 427, 4-[3-(8-{2-[ethyl(isopropyl)aminoformyl]-4-fluorophenyl}-3-methylimidazo[1,5-a]pyridin-6-yl)azacyclobutan-1-yl]-5-methylhexanoic acid], for which the IC50 came out at 120 nM.

For `COC1CCN(CCCC(C(C)C)N2CC(c3cc(-c4ccc(F)cc4C(=O)N4CCOCC4C)c4c(F)nc(C)n4c3)C2)C1` (stereo not shown) [Example 201-2], the IC50 was determined as 56 nM.

Consider `CCN(C(=O)c1cc(F)ccc1-c1cc(C2CN(C(CN3CCC(OC)CC3)C(C)C)C2)cn2c(C)ncc12)C(C)C` (stereo not shown) [Example 444], for which the 50% inhibitory concentration (IC50) turned out to be 45 nM.

Regarding `C=C1C[C@@H]2CC[C@H]1[C@@H](C(=O)N1CCC(c3cc(-c4ccc(F)cc4C(=O)N(CC)C(C)C)c4cncn4c3)CC1)N2` [Compound 39, N-ethyl-5-fluoro-2-(6-{1-[(1S,3S,4R)-5-methylene-2-azabicyclo[2.2.2]octan-3-carbonyl]piperidin-4-yl}imidazo[1,5-a]pyridin-8-yl)-N-(isopropyl)benzamide], the IC50 came to 137 nM.

With `CCN(C(=O)c1cc(F)ccc1-c1cc(C2CN([C@@H](CCCN3CCN(C(C)=O)CC3)C(C)C)C2)cn2c(C)nc(F)c12)C(C)C` [Example 313], the 50% inhibitory concentration (IC50) came out at 48 nM.

As for `CCN(C(=O)c1cc(F)ccc1-c1cc(C2CN([C@H](CN3CCN(CCF)CC3)C(C)C)C2)cc2c1cnn2C)C(C)C` [Example 424, N-ethyl-5-fluoro-2-(6-{1-[(2S)-1-[4-(2-fluoroethyl)piperazin-1-yl]-3-methylbutan-2-yl]azacyclobutan-3-yl}-1-methyl-1H-indazol-4-yl)-N-(isopropyl)benzamide], the IC50 was 78 nM.

As for `Cc1ncc2c(-c3ccc(F)cc3C(=O)N(CC(F)F)C(C)C)cc(C3CN([C@@H](CCCN4CCN(CCO)CC4)C(C)C)C3)cn12` [Example 459-2, N-(2,2-difluoroethyl)-5-fluoro-2-(6-{1-[(3S)-6-[4-(2-hydroxylethyl)piperazin-1-yl]-2-methylhexan-3-yl]azacyclobutan-3-yl}-3-methyl-imidazo[1,5-a]pyridin-8-yl)-N-(isopropyl)benzamide], the IC50 came to 40 nM.

In the case of `Cc1nc(F)c2c(-c3ccc(F)cc3C(=O)N3CCOC[C@H]3C)cc(C3CN(CC4(O)CCOCC4)C3)cn12` [Example 239], the IC50 came out at 199 nM.

`CCN(C(=O)c1cc(F)ccc1-c1cc(N2CCN(C(=O)[C@@H]3CC4CCCCC4N3)CC2)cn2c(C)nc(Cl)c12)C(C)C` (stereo partly shown) [Example 112]: the IC50 came out at 24 nM.

Regarding `CCS(=O)(=O)N[C@H]1CC[C@H](CCN2CC(c3cc(-c4ccc(F)cc4C(=O)N4CCOC[C@H]4C)c4cnn(C)c4c3)C2)CC1` [Example 160], the IC50 was 62 nM.

For the compound `CCN(C(=O)c1cc(F)ccc1-c1cc(C2CN([C@H](CCCN3CC4CC(C3)N4C)C(C)C)C2)cn2c(C)ncc12)C(C)C` [Example 392], the IC50 was found to be 2 nM.

Broadly, the IC50 is the point on the concentration scale where inhibition reaches its midpoint.
